Calls of active or inactive are those of the source. The calls are words filed in the database; no cut-off is given here.

The target in data set [1] is T1, Tumor necrosis factor receptor superfamily member 16 (Mus musculus) (UniProt Q9Z0W1).
T1 sequence (whole entry): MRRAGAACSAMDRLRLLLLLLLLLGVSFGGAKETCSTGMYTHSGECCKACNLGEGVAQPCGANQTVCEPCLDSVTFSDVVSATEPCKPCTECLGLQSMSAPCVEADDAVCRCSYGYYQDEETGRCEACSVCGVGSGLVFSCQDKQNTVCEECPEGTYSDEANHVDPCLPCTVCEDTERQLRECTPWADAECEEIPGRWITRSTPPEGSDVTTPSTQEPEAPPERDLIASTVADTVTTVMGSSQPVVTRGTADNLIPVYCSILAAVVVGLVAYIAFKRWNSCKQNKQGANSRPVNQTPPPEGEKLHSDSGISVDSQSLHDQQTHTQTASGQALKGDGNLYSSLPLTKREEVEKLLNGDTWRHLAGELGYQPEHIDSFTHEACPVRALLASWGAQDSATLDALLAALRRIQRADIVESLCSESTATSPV
Put plainly: (§1) Activation of p75NTR in C57BL/6 mouse brain assessed as suppression of carbachol-mediated persistant firing of entorhinal cortex after 15 mins by current-clamp technique. It is filed as tissue-based.

In data set [2] the target is T2, Tumor necrosis factor receptor superfamily member 16 (Mus musculus, UniProt Q9Z0W1).
T2 sequence (Q9Z0W1 whole entry): T1 sequence (whole entry)
Described as §1. It is filed as tissue-based.

The nature of data set [3]: Hydrophilicity, logD of the compound. It is filed as physicochemical. To be noted: octanol/water.
The species entered for data set [4] is Mus musculus. Description: Effect on carbachol-mediated persistant firing of entorhinal cortex in p75NTR deficient C57BL/6 mouse brain at 10 nM after 15 mins by current-clamp technique. The data set is classed as functional.
In data set [5] the target is T3, Tumor necrosis factor receptor superfamily member 16 (Rattus norvegicus) (UniProt P07174).
T3 sequence (whole entry): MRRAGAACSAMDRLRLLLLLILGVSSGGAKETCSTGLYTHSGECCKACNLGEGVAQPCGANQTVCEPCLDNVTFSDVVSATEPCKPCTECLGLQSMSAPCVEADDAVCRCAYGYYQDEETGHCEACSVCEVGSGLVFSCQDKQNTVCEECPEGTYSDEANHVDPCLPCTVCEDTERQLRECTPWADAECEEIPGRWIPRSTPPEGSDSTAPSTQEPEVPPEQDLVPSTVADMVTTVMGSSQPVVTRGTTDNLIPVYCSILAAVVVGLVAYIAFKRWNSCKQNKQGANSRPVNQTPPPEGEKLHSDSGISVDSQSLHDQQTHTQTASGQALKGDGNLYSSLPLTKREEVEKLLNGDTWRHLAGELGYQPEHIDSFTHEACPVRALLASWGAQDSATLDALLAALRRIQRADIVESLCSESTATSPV
Description: Binding affinity to p75NTR in Long-Evans rat brain at 300 uCi incubated for 40 mins followed by compound wash out for 10 secs and addition of compound for 2 hrs by autoradiographic analysis. To be noted: tested as the 11C-labelled form. It is filed as tissue-based.

Data set [6] can be described thus: Drug uptake in C57BL/6 mouse brain incubated for 40 mins followed by compound wash out for 10 secs and addition of compound for 30 to 60 mins by autoradiographic analysis. It is filed as ADME, tissue-based.
The nature of data set [7]: Drug uptake in C57BL/6 mouse brain incubated for 40 mins followed by compound wash out for 10 secs and addition of compound for 30 to 60 mins in presence of 10 uM LM11A-24 by autoradiographic analysis. It is filed as ADME, tissue-based.
Data set [8] in a line: Drug uptake in C57BL/6 mouse brain incubated for 40 mins followed by compound wash out for 10 secs and addition of compound for 30 to 60 mins in presence of 400 uM LM11A-24 by autoradiographic analysis. The data set is classed as ADME, tissue-based.
The nature of data set [9]: Drug uptake in C57BL/6 mouse DRG neurons incubated for 40 mins measured after 30 to 60 mins by autoradiographic analysis. The data set is classed as ADME, cell-based. As to conditions: drg neuron.
Data set [10] can be described thus: Drug uptake in C57BL/6 mouse DRG neurons incubated for 40 mins followed by compound wash out for 10 secs and addition of compound for 30 to 60 mins by autoradiographic analysis. As to conditions: drg neuron. It is filed as ADME, cell-based.
Data set [11] can be described thus: Drug uptake in Long-Evans rat brain at 0.4 mCi, iv through bolus administration by PET analysis. It is filed as ADME, organism-based. As to conditions: in vivo.
Data set [12] is described as follows: Drug uptake in Long-Evans rat bladder at 0.4 mCi, iv through bolus administration by PET analysis. It is filed as ADME, organism-based, Urinary bladder. To be noted: in vivo.

`CN(C)CCCNC(=O)Cn1cnc2c1c(=O)n(C)c(=O)n2C`: the Activity entry in data set [1] is “Dose-dependent effect”. The EC50 in [2] was below 10 nM. The log distribution coefficient (logD) in data set [3] is -3. Further, the outcome in data set [4] and in [5] was inactive.

As for `CN([11CH3])CCCNC(=O)Cn1cnc2c1c(=O)n(C)c(=O)n2C`, the Drug uptake result in [6] is recorded as “Active”; in data set [7] it was “Active”; in data set [8] it was “Active”; in [9], “Not Active”; in data set [10] it was “Not Active”; in data set [11], “Not Active”. Further, the Drug uptake result in [12] is on record as “Active”.
